From patent US20240116877A1, “KIT KINASE INHIBITORS AND METHODS OF USE THEREOF” (Deciphera Pharmaceuticals, LLC, priority 2021, published 2024)
Like-named read-outs stand apart in the source and are kept apart here.

Key:
GIST 430 cells = assay: GIST 430 Cell Proliferation Assay (resazurin); type: cell-based; conditions: Homo sapiens; GIST430 cell proliferation
Summary of the method: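 Five thousand cells per well were exposed to serially diluted compound in complete growth medium for 115 h at 37 degrees Celsius, 5% CO2. Resazurin was then added for a further 5 h, fluorescence read at 540 nm excitation/600 nm emission, and IC50 values calculated.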

c-KIT kinase (uKIT) = c-KIT kinase (uKIT) (Homo sapiens (Human), UniProt P10721); assay: Biochemical Assay for uKIT (coupled pyruvate kinase/lactate dehydrogenase assay); conditions: Inhibition of biochemical activity of uKIT kinase; 1 mM ATP
Sequence of c-KIT kinase (uKIT) (P10721 other isoform, or with tags, fused parts or gaps): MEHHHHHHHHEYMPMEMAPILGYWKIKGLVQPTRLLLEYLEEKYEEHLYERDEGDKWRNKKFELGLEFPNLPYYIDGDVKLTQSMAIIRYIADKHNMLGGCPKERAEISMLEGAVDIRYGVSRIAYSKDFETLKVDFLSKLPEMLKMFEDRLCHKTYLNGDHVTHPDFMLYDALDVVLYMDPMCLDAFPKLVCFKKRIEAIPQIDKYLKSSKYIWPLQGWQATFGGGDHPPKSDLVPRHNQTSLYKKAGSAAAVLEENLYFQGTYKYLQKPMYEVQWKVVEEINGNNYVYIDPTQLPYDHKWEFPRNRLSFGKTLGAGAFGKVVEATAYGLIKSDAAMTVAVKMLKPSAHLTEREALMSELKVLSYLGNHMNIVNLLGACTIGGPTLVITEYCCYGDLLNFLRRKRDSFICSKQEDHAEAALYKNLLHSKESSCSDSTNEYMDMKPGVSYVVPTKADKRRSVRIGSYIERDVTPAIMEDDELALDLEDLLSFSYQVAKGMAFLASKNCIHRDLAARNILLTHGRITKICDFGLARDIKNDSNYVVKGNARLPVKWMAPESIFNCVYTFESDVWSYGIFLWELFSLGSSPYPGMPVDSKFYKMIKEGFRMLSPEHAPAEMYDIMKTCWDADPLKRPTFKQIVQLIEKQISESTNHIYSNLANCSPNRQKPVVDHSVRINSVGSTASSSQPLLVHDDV
Summary of the method: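 Continuous coupled PK/LDH assay following NADH oxidation at 340 nm for 6 h at 30° C, with 16 nM or 4.36 nM KIT (two constructs), 0.7 mg/mL PE4Y, 1 mM ATP, pH 7.5. Rates from the 2-3 h window converted to percent inhibition versus controls; IC50 fitted.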

Ba/F3 KIT mutant cells = assay: Ba/F3 mutant KIT Cell Proliferation Assays (resazurin); type: cell-based; conditions: Mus musculus, BaF3
Summary of the method: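 IC50 values come from resazurin fluorescence (ex 540, em 600) after 5 h dye exposure, added as a 440 μM solution. Cells were IL-3-independent Ba/F3 expressing mutant KIT from a lentiviral vector, puromycin-selected.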

[1] = Ba/F3 KIT AYdup mutant cell proliferation, read-out: AYdup IC50
[2] = Ba/F3 KIT AYdup-D816G mutant cell proliferation, read-out: AYdup-D816G IC50
[3] = Ba/F3 KIT AYdup-V654A mutant cell proliferation, read-out: AYdup-V654A IC50
[4] = Ba/F3 KIT exon11del-V654A mutant cell proliferation, read-out: exon11del-V654A IC50
[5] = Ba/F3 KIT exon11del-Y823D mutant cell proliferation, read-out: exon11del-Y823D IC50

| Structure (SMILES) | IC50 (GIST 430 cells) [nM] | IC50 (c-KIT kinase (uKIT)) [nM] | IC50 (Ba/F3 KIT mutant cells; [1]) [nM] | IC50 (Ba/F3 KIT mutant cells; [2]) [nM] | IC50 (Ba/F3 KIT mutant cells; [3]) [nM] | IC50 (Ba/F3 KIT mutant cells; [4]) [nM] | IC50 (Ba/F3 KIT mutant cells; [5]) [nM] |
| --- | --- | --- | --- | --- | --- | --- | --- |
| COCCOc1cc(F)c2c(Nc3ccc(NC(=O)OCCC(C)(C)C#N)cc3)ncnc2c1 [Example 46] | 10 to 100 | ≤ 10 | ≤ 10 | 10 to 100 | 100 to 1000 | 10 to 100 | 100 to 1000 |
| COCCOc1cc(F)c2c(Nc3ccc(NC(=O)COCCC(C)C)cc3)ncnc2c1 [Example 47] | ≤ 10 | ≤ 10 | ≤ 10 | 10 to 100 | 10 to 100 | 10 to 100 | 10 to 100 |
| COCCOc1cc(F)c2c(Nc3ccc(NC(=O)COCC(F)(F)F)cc3)ncnc2c1 [Example 48] | 100 to 1000 | 100 to 1000 | 10 to 100 | 100 to 1000 | 100 to 1000 | 100 to 1000 | 100 to 1000 |
| COCCOc1cc(F)c2c(Nc3ccc(NC(=O)COCC(C)C)cc3)ncnc2c1 [Example 49] | 10 to 100 | ≤ 10 | ≤ 10 | 10 to 100 | 100 to 1000 | 10 to 100 | 100 to 1000 |
| COCCOc1cc(F)c2c(Nc3ccc(NC(=O)C4(C(=O)N(C)CC(C)(C)C)CC4)cc3)ncnc2c1 [Example 50] | 100 to 1000 | 100 to 1000 | 100 to 1000 | > 1000 | 100 to 1000 | > 1000 | > 1000 |
| COCCOc1cc(F)c2c(Nc3ccc(NC(=O)CC(=O)N(C)CC(C)(C)C)cc3)ncnc2c1 [Example 51] | ≤ 10 | 10 to 100 | 10 to 100 | 10 to 100 | 10 to 100 | 10 to 100 | 10 to 100 |
| COCCOc1cc(F)c2c(Nc3ccc(NC(=O)OCCC(C)(C)F)cc3)ncnc2c1 [Example 52] | 10 to 100 | 10 to 100 | ≤ 10 | 10 to 100 | 100 to 1000 | 10 to 100 | 100 to 1000 |
| COCCOc1cc(F)c2c(Nc3ccc(NC(=O)CCN4CCCC4=O)cc3)ncnc2c1 [Example 53] | 100 to 1000 | > 1000 | 100 to 1000 | > 1000 | > 1000 | > 1000 | – |
| COCCOc1cc(F)c2c(Nc3ccc(NC(=O)NCCN4CCCC4=O)cc3)ncnc2c1 [Example 54] | 10 to 100 | 10 to 100 | 10 to 100 | 100 to 1000 | 100 to 1000 | 100 to 1000 | 100 to 1000 |
| COCCOc1cc(F)c2c(Nc3ccc(NC(=O)C(C)NC(=O)CC(C)C)cc3)ncnc2c1 (stereo not shown) [Example 55] | 100 to 1000 | 100 to 1000 | – | – | 100 to 1000 | 10 to 100 | 100 to 1000 |
| COCCOc1cc(F)c2c(Nc3ccc(NC(=O)COCC4CCCC4)cc3)ncnc2c1 [Example 56] | ≤ 10 | ≤ 10 | – | – | 10 to 100 | 10 to 100 | 10 to 100 |
| COCCOc1cc(F)c2c(Nc3ccc(NC(=O)COCC4CC4)cc3)ncnc2c1 [Example 57] | 10 to 100 | 100 to 1000 | – | – | 100 to 1000 | 10 to 100 | > 1000 |
| COCCOc1cc(F)c2c(Nc3ccc(NC(=O)COCC4CCCO4)cc3)ncnc2c1 (stereo not shown) [Example 58] | 10 to 100 | 10 to 100 | – | – | 100 to 1000 | 100 to 1000 | > 1000 |
| COCCOc1cc(F)c2c(Nc3ccc(NC(=O)COCC4CCOC4)cc3)ncnc2c1 (stereo not shown) [Example 59] | 10 to 100 | 10 to 100 | – | – | 100 to 1000 | 10 to 100 | > 1000 |
| COCCOc1cc(F)c2c(Nc3ccc(NC(=O)C(F)(F)C(=O)NCC(C)(C)C)cc3)ncnc2c1 [Example 60] | 10 to 100 | 10 to 100 | – | – | 10 to 100 | 10 to 100 | 100 to 1000 |
| COCCOc1cc(F)c2c(Nc3ccc(NC(=O)NCCC4CCOCC4)cc3)ncnc2c1 [Example 61] | ≤ 10 | 10 to 100 | ≤ 10 | ≤ 10 | 10 to 100 | ≤ 10 | 10 to 100 |
| COCCOc1cc(F)c2c(Nc3ccc(NC(=O)CCC4CCN(C)CC4)cc3)ncnc2c1 [Example 62] | > 1000 | > 1000 | – | – | 100 to 1000 | 100 to 1000 | – |
| COCCOc1cc(F)c2c(Nc3ccc(NC(=O)CCC4CCOCC4)cc3)ncnc2c1 [Example 63] | 10 to 100 | 10 to 100 | – | – | 100 to 1000 | 10 to 100 | > 1000 |
| COCCOc1cc(F)c2c(Nc3ccc(NC(=O)NCCC(C)(C)F)c(F)c3)ncnc2c1 [Example 64] | 10 to 100 | 10 to 100 | – | – | 100 to 1000 | 10 to 100 | 100 to 1000 |

| Structure (SMILES) | IC50 (GIST 430 cells) [nM] | IC50 (c-KIT kinase (uKIT)) [nM] | IC50 (Ba/F3 KIT mutant cells; [1]) [nM] | IC50 (Ba/F3 KIT mutant cells; [2]) [nM] | IC50 (Ba/F3 KIT mutant cells; [3]) [nM] | IC50 (Ba/F3 KIT mutant cells; [4]) [nM] | IC50 (Ba/F3 KIT mutant cells; [5]) [nM] |
| --- | --- | --- | --- | --- | --- | --- | --- |
| COCCOc1cc(F)c2c(Nc3ccc(NC(=O)NCCC(C)(C)F)cc3F)ncnc2c1 [Example 65] | 10 to 100 | ≤ 10 | – | – | 10 to 100 | ≤ 10 | 100 to 1000 |
| COCCOc1cc(F)c2c(Nc3ccc(NC(=O)CN(C)C(=O)C(C)C)cc3)ncnc2c1 [Example 66] | 10 to 100 | 10 to 100 | – | – | 10 to 100 | 10 to 100 | > 1000 |
| COCCOc1cc(F)c2c(Nc3ccc(NC(=O)CCC(=O)N(C)C(C)C)cc3)ncnc2c1 [Example 67] | 100 to 1000 | 10 to 100 | – | – | 100 to 1000 | 10 to 100 | 10 to 100 |
| CN(C)CCOc1cc(F)c2c(Nc3ccc(NC(=O)NCCC(C)(C)F)cc3)ncnc2c1 [Example 68] | ≤ 10 | ≤ 10 | – | – | 10 to 100 | ≤ 10 | 100 to 1000 |
| COCCOc1cc(F)c2c(Nc3ccc(NC(=O)CC4CCC(C)(C)CC4)cc3)ncnc2c1 [Example 69] | ≤ 10 | ≤ 10 | 10 to 100 | ≤ 10 | 10 to 100 | 10 to 100 | 10 to 100 |
| COCCOc1cc(F)c2c(Nc3ccc(NC(=O)NCCC(C)(C)C#N)cc3F)ncnc2c1 [Example 70] | > 1000 | > 1000 | – | – | 100 to 1000 | 100 to 1000 | 100 to 1000 |
| COCCOc1cc(F)c2c(Nc3ccc(NC(=O)C4(C(=O)NCC(C)C)CC4)cc3)ncnc2c1 [Example 71] | 100 to 1000 | 10 to 100 | – | – | 100 to 1000 | 10 to 100 | > 1000 |
| COCCOc1cc(F)c2c(Nc3ccc(NC(=O)C4(C(=O)N(C)CC(C)C)CC4)cc3)ncnc2c1 [Example 72] | 100 to 1000 | > 1000 | – | – | > 1000 | 100 to 1000 | – |
| COCCOc1cc(F)c2c(Nc3ccc(NC(=O)CC(=O)N(C)C(C)C)cc3)ncnc2c1 [Example 74] | 10 to 100 | 10 to 100 | – | – | 10 to 100 | 10 to 100 | 100 to 1000 |
| COCCOc1cc(F)c2c(Nc3ccc(NC(=O)C4(C(=O)NCCC(C)(C)F)CC4)cc3)ncnc2c1 [Example 75] | 100 to 1000 | 10 to 100 | – | – | 100 to 1000 | 10 to 100 | > 1000 |
| COCCOc1cc(F)c2c(Nc3ccc(NC(=O)CNC(=O)CC(C)C)cc3)ncnc2c1 [Example 76] | ≤ 10 | 10 to 100 | – | – | 10 to 100 | ≤ 10 | 100 to 1000 |
| COCCOc1cc(F)c2c(Nc3ccc(NC(=O)CC(=O)NCC4CC4)cc3)ncnc2c1 [Example 77] | 10 to 100 | 10 to 100 | – | – | 10 to 100 | ≤ 10 | 100 to 1000 |
| COCCOc1cc(F)c2c(Nc3ccc(NC(=O)CC(=O)NCC4CCOCC4)cc3)ncnc2c1 [Example 78] | 100 to 1000 | 100 to 1000 | – | – | 100 to 1000 | 10 to 100 | > 1000 |
| COCCOc1cc(F)c2c(Nc3ccc(NC(=O)CC(=O)NCC4CCCC4)cc3)ncnc2c1 [Example 79] | 10 to 100 | 10 to 100 | – | – | 10 to 100 | 10 to 100 | 100 to 1000 |
| COCCOc1cc(F)c2c(Nc3ccc(NC(=O)CC(=O)NCC(C)C)cc3)ncnc2c1 [Example 81] | 10 to 100 | 10 to 100 | – | – | 10 to 100 | 10 to 100 | > 1000 |
| COCCOc1cc(F)c2c(Nc3ccc(NC(=O)CC(=O)NCCC(C)(C)C)cc3)ncnc2c1 [Example 82] | 10 to 100 | ≤ 10 | – | – | 10 to 100 | ≤ 10 | 100 to 1000 |
| COCCOc1cc(F)c2c(Nc3ccc(NC(=O)CC(=O)NCCN(C)C)cc3)ncnc2c1 [Example 83] | > 1000 | > 1000 | – | – | – | > 1000 | – |
| COCCOc1cc(F)c2c(Nc3ccc(NC(=O)CC(=O)NCCN4CCOCC4)cc3)ncnc2c1 [Example 84] | > 1000 | > 1000 | – | – | – | 100 to 1000 | – |
| COCCOc1cc(F)c2c(Nc3ccc(NC(=O)CC(=O)NCC4(C)CC4)cc3)ncnc2c1 [Example 85] | ≤ 10 | ≤ 10 | – | – | 10 to 100 | ≤ 10 | 100 to 1000 |
